Source: patent publication US6696404B1, “Antibacterial composition having xanthorrizol” (LG Household & Healthcare, priority 1999, dated 2004)
Converted amounts (≈) assume the structure as drawn.

Key:
[1] = system: Streptococcus mutans; assay: Minimum inhibitory concentration of active fractions; assay type: cell-based
Procedure: The crude extract, prepared in Example 1-1 was applied to a silica gel column chromatography: the crude extract was applied to a column chromatography(5×43 cm) filled with silica gel(Merck, U.S.A.) of 70 to 230 mesh, and eluted with a mixed gradient of hexane and ethylacetate (10:1→3:1→1:1). Then, thin layer chromatography(TLC) was performed with the active fractions obtained in the course of chromatographic procedure to give 8 different fractions(fractions I to VIII ) with similar retention on the TLC plate. Antibacterial activity of the fractions was measured in terms of minimum inhibitory concentration(MIC), and compared to that of vancomycin.

[2] = Antibacterial activity of acetylated single compound; assay type: cell-based; settings: acetylated form
Procedure: Since fraction II had some impurities, acetylation of the fraction was carried out to change its polarity as a procedure to obtain a single compound with antibacterial activity: 0.5 g of fraction II was dissolved in 5 ml pyridine, added with 5 ml of acetic anhydride in a drop-wise manner at ice-cold temperature, and stirred at room temperature for more than 15 hours. The reactant was subjected to partition extraction with 100 ml of ice-cold water once, and subsequently 100 ml of ethylacetate twice. The ethylacetate phase thus obtained was washed with 5% HCl, NaHCO3 and NaCl, dehydrated with anhydrous MgSO4, filtered and condensed under a reduced pressure. The resultant was finally applied onto a silica gel column(4.7×50 cm), and eluted with a solvent mixture of hexane and ethylacetate(15:1, v/v) to give an acetylated single compound. […] Then, 2 ml of 5% KOH was added to the compound, reacted with stirring for more than 2 hours, and neutralized using cation exchange resin(DOWEX50WX4-400), followed by filtration and condensation to give a single isolated compound. Thereafter, its molecular weight was measured with EI-MS(VG Platform II, FISIONS, 15 eV), and chemical identification was conducted using analytical instruments of ^1H-NMR, ^13C-NMR(400 MHz, CDCl3) and IR(Perkin Elmer spectrum I , DTGS detector). […]

[3] = system: Cladosporium cladosporioides IFO 6348; assay: MIC by 2-fold dilution; assay type: cell-based; settings: IFO6348, 2×10^5 CFU/ml, 30 to 37° C., more than 24 hours
Procedure: (§1) In addition, minimum inhibitory concentration(MIC, μg/ml) for various microorganisms was determined by performing 2-fold dilution: first, 1 ml of medium was taken into each tube, and 1 ml of xanthorrizol(0.05% in DMSO) was added to only one tube to make 2-fold dilution. Then, serial 2-fold dilution was further carried out for the rest of the tubes, starting from the tube containing xanthorrizol. 100 μl of microorganism was added into each tube prepared by the 2-fold dilution to contain a final cell number of 2×10^5 CFU/ml, and incubated at 30 to 37° C. for more than 24 hours to determine minimum inhibitory concentrations for various test microorganisms(see: Table 12).

[4] = system: Streptococcus sobrinus ATCC 27351; assay: MIC by 2-fold dilution; assay type: cell-based; settings: ATCC27351, 2×10^5 CFU/ml, 30 to 37° C., more than 24 hours
Procedure: as §1

[5] = system: Lactobacillus aciophilus ATCC 4356; assay: MIC by 2-fold dilution; assay type: cell-based; settings: ATCC4356, 2×10^5 CFU/ml, 30 to 37° C., more than 24 hours
Procedure: as §1

[6] = system: Penicilium citrinum IFO 6352; assay: MIC by 2-fold dilution; assay type: cell-based; settings: 2×10^5 CFU/ml; 30 to 37° C., more than 24 hours
Procedure: as §1

[7] = system: Propionibacterium acnes ATCC 6919; assay: MIC by 2-fold dilution; assay type: cell-based; settings: Cutibacterium acnes, ATCC6919; 2×10^5 CFU/ml; 30 to 37° C., more than 24 hours
Procedure: as §1

[8] = system: Candida glabrata IFO 0622; assay: MIC by 2-fold dilution; assay type: cell-based; settings: Nakaseomyces glabratus, IFO0622; 2×10^5 CFU/ml; 30 to 37° C., more than 24 hours
Procedure: as §1

[9] = system: Pityrosporum pacchydermatis ATCC 14522; assay: MIC by 2-fold dilution; assay type: cell-based; settings: 2×10^5 CFU/ml; 30 to 37° C., more than 24 hours
Procedure: as §1

[10] = system: Candida albicans ATCC 10231; assay: MIC by 2-fold dilution; assay type: cell-based; settings: ATCC10231, 2×10^5 CFU/ml, 30 to 37° C., more than 24 hours
Procedure: as §1

[11] = system: Streptomyces bikiniensis ATCC 11062; assay: MIC by 2-fold dilution; assay type: cell-based; settings: ATCC11062, 2×10^5 CFU/ml, 30 to 37° C., more than 24 hours
Procedure: as §1

[12] = system: Streptococcus mutans ATCC 25175; assay: MIC by 2-fold dilution; assay type: cell-based; settings: ATCC25175, 2×10^5 CFU/ml, 30 to 37° C., more than 24 hours
Procedure: as §1

[13] = system: Staphylococcus aureus ATCC 12600; assay: MIC by 2-fold dilution; assay type: cell-based; settings: ATCC12600, 2×10^5 CFU/ml, 30 to 37° C., more than 24 hours
Procedure: as §1

[14] = system: Saccharomyces cerevisiae ATCC 9763; assay: MIC by 2-fold dilution; assay type: cell-based; settings: ATCC9763, 2×10^5 CFU/ml, 30 to 37° C., more than 24 hours
Procedure: as §1

[15] = system: Bifidobacterium bifidum ATCC 29521; assay: MIC by 2-fold dilution; assay type: cell-based; settings: ATCC29521, 2×10^5 CFU/ml, 30 to 37° C., more than 24 hours
Procedure: as §1

[16] = system: Penicilium chrysogenum IFO 5472; assay: MIC by 2-fold dilution; assay type: cell-based; settings: 2×10^5 CFU/ml; 30 to 37° C., more than 24 hours
Procedure: as §1

[17] = system: Actinomyces viscosus ATCC 15988; assay: MIC by 2-fold dilution; assay type: cell-based; settings: ATCC15988, 2×10^5 CFU/ml, 30 to 37° C., more than 24 hours
Procedure: as §1

[18] = system: Lactobacillus casei ATCC 4646; assay: MIC by 2-fold dilution; assay type: cell-based; settings: Lacticaseibacillus casei, ATCC4646; 2×10^5 CFU/ml; 30 to 37° C., more than 24 hours
Procedure: as §1

[19] = system: Salmonella typhimurium IFO 12529; assay: MIC by 2-fold dilution; assay type: cell-based; settings: Salmonella enterica; 2×10^5 CFU/ml; 30 to 37° C., more than 24 hours
Procedure: as §1

[20] = system: Streptococcus sanguis ATCC 35105; assay: MIC by 2-fold dilution; assay type: cell-based; settings: ATCC35105, 2×10^5 CFU/ml, 30 to 37° C., more than 24 hours
Procedure: as §1

[21] = system: Streptococcus salivarius ATCC 9758; assay: MIC by 2-fold dilution; assay type: cell-based; settings: ATCC9758, 2×10^5 CFU/ml, 30 to 37° C., more than 24 hours
Procedure: as §1

[22] = system: Porphyromonas gingivalis W 50; assay: MIC by 2-fold dilution; assay type: cell-based; settings: W50, 2×10^5 CFU/ml, 30 to 37° C., more than 24 hours
Procedure: as §1

[23] = system: Enterococcus faecalis ATCC 19433; assay: MIC by 2-fold dilution; assay type: cell-based; settings: ATCC19433, 2×10^5 CFU/ml, 30 to 37° C., more than 24 hours
Procedure: as §1

[24] = system: Streptococcus mutans; assay: Viable cell count after xanthorrizol treatment; assay type: cell-based; settings: xanthorrizol 0.0004%(4 μg/ml); 37° C.
Procedure: Xanthorrizol was also tested for Streptococcus mutans in a similar manner as described above: xanthorrizol was dissolved in DMSO to give specimens with a concentration of 0.0002%, 0.0004% and 0.0008%, respectively. Then, the specimens were incubated with the microorganism at 37° C. for 1, 2, 5 and 10 minutes, respectively, and subjected to serial 10-fold dilution. After the incubation with the pathogen, viable cell number for Streptococcus mutans was counted. FIG. 3 is a graph showing antibacterial activity of xanthorrizol against Streptococcus mutans in terms of viable cell number, where ♦ represents DMSO, control; ▪, 0.0002% crude extract; Δ, 0.0004% crude extract; x, 0.0008% crude extract, respectively.

[25] = system: human skin; assay: Skin safety patch test; assay type: in vivo
[26] = system: Streptococcus mutans; assay: Thermal stability: well diffusion analysis after heating; assay type: cell-based; settings: 0.1% in DMSO heated 30 minutes
Procedure: Xanthorrizol was dissolved in DMSO to prepare specimens with a concentration of 0.1%. The specimens were heated for 30 minutes at the temperature of 60° C., 70° C., 80° C., 90° C., 100° C. and 121° C., respectively. Then, antibacterial activity against Streptococcus mutans was determined for each specimen by well diffusion analysis, whose results are shown in Table 13.

[27] = system: Streptococcus mutans; assay: Efflux of intracellular macromolecules and ions after xanthorrizol treatment; assay type: cell-based; settings: 5 and 10 μg/ml xanthorrizol; FIGS. 4a, 4b, 5a, 5b
Procedure: Streptococcus mutans was treated with 5 and 10 μg/ml of xanthorrizol for 1, 2, 5 and 10 minutes, respectively, to examine the efflux of intracellular macromolecules and ions by the xanthorrizol-mediated cell damage. FIGS. 4a and 4b are graphs showing the efflux of neucleic acid and protein from Streptococcus mutans after xanthorrizol treatment, and FIGS. 5a and 5b, calcium efflux and magnesium efflux, where ♦ represents 0.1% DMSO, control; ▪, Streptococcus mutans treated with 5 μg/ml xanthorrizol; •, Streptococcus mutans treated with 10 μg/ml xanthorrizol, respectively.

[28] = system: Propionibacterium acnes; assay: Viable cell count after xanthorrizol treatment; assay type: cell-based; settings: xanthorrizol 0.002%; 37° C.
Procedure: To measure the antibacterial activity of xanthorrizol, it was dissolved in DMSO to give specimens with a concentration of 0.001%, 0.0015% and 0.002%, respectively, and incubated with test microorganisms([…] CFU/ml) at 37° C. for 1, 2, 5, and 10 hours, respectively. Then, they were subjected to serial 10-fold dilution, incubated with an acne-causing pathogen, Propionibacterium acnes for 24 to 48 hours, and counted the viable cell number of the pathogen. FIG. 2 is a graph showing antibacterial activity of xanthorrizol in terms of viable cell numbers, where ♦ represents DMSO, control; ▪, 0.001% crude extract; ▾, 0.0015% crude extract; x, 0.002% crude extract, respectively.

[29] = system: the pathogens; assay: Change in cell morphology (TEM) after xanthorrizol treatment; assay type: cell-based; settings: 10 μg/ml xanthorrizol for 30 minutes
Procedure: To assess the extent of xanthorrizol-mediated cell damage, 10 μg/ml xanthorrizol was treated to the pathogens for 30 minutes. […] Further, it was assumed that through the efflux of intracellular macromolecules and ions, the permeability of cell wall is increased to accelerate the efflux of intracellular components, which in turn inactivates cellular enzymes and causes the malfunction of cell wall.

CN[C@H](CC(C)C)C(=O)N[C@H]1C(=O)N[C@@H](CC(N)=O)C(=O)N[C@H]2C(=O)N[C@H]3C(=O)N[C@H](C(=O)N[C@H](C(=O)O)c4cc(O)cc(O)c4-c4cc3ccc4O)[C@H](O)c3ccc(c(Cl)c3)Oc3cc2cc(c3O[C@@H]2O[C@H](CO)[C@@H](O)[C@H](O)[C@H]2O[C@H]2C[C@](C)(N)[C@H](O)[C@H](C)O2)Oc2ccc(cc2Cl)[C@H]1O [Vancomycin, vancomycin]
MIC [1]: 1 µg/mL (≈ 0.69 µM)

CC(=O)Oc1cc(C(C)CCC=C(C)C)ccc1C (stereo not shown) [acetylated single compound]
antibacterial activity [2]: no antibacterial activity

CC(C)=CCC[C@@H](C)c1ccc(C)c(O)c1 [xanthorrizol, 1,3,5,10-bisabolatetraen-3-ol]
MIC [3]: 500 µg/mL (≈ 2290 µM)
MIC [4]: 4 µg/mL (≈ 18.3 µM)
MIC [5]: 500 µg/mL (≈ 2290 µM)
MIC [6]: 250 µg/mL (≈ 1150 µM)
MIC [7]: 16 µg/mL (≈ 73.3 µM)
MIC [8]: 125 µg/mL (≈ 573 µM)
MIC [9]: 125 µg/mL (≈ 573 µM)
MIC [10]: 125 µg/mL (≈ 573 µM)
MIC [11]: 32 µg/mL (≈ 147 µM)
MIC [12]: 2 µg/mL (≈ 9.16 µM)
MIC [13]: 62.5 µg/mL (≈ 286 µM)
MIC [14]: 250 µg/mL (≈ 1150 µM)
MIC [15]: 250 µg/mL (≈ 1150 µM)
MIC [16]: 125 µg/mL (≈ 573 µM)
MIC [17]: 16 µg/mL (≈ 73.3 µM)
MIC [18]: 250 µg/mL (≈ 1150 µM)
MIC [19]: 62.5 µg/mL (≈ 286 µM)
MIC [20]: 4 µg/mL (≈ 18.3 µM)
MIC [21]: 4 µg/mL (≈ 18.3 µM)
MIC [22]: 32 µg/mL (≈ 147 µM)
MIC [23]: 16 µg/mL (≈ 73.3 µM)
Eradication of the microorganism (viable cell number, FIG. 3) [24]: eradicated almost completely in one minute
adverse effects such as erythema, scarring or edema on skin [25]: do not cause adverse effects
Diameter of Clear Zone ([26]; Treatment Temp. 60 ° C.): 17 mm
Diameter of Clear Zone ([26]; Treatment Temp. 70 ° C.): 16 mm
Diameter of Clear Zone ([26]; Treatment Temp. 80 ° C.): 17 mm
Diameter of Clear Zone ([26]; Treatment Temp. 90 ° C.): 17 mm
Diameter of Clear Zone ([26]; Treatment Temp. 100 ° C.): 18 mm
Diameter of Clear Zone ([26]; Treatment Temp. 121 ° C.): 17 mm
efflux of protein, neucleic acid and ion [27]: increased dramatically in 5 minutes
Eradication of the microorganism (viable cell number, FIG. 2) [28]: eradicated almost completely in one hour
cell morphology (TEM) [29]: cell wall expansion was detected, followed by cell disruption
